The record followed here is ChEMBL document CHEMBL1132739, “Pyrrolo[2,3-d]pyrimidines containing an extended 5-substituent as potent and selective inhibitors of lck I” (Bioorg Med Chem Lett, 2000).

Bounds are passed on as bounds.

One may read the IC50 as the point on the concentration scale where inhibition reaches its midpoint. A lower IC50 goes with inhibition by little substance.

For assay [1], the target named is T1, Tyrosine-protein kinase Lck (Homo sapiens, UniProt P06239).
Description: Inhibition of p56 Lck tyrosine kinase at 5 uM ATP
Assay [2] has as its system Jurkat. The assay is described as follows: Inhibition of anti-CD3 stimulated IL-2 production by Jurkat cells. It is filed as functional, cell-based. The following applies: Homo sapiens.
Assay [3] deals with Jurkat. The assay is described as follows: Inhibition of MLR stimulated IL-2 production in Jurkat cells. The format is functional, cell-based. The following applies: Homo sapiens.
Assay [4] concerns the target T2, Tyrosine-protein kinase ZAP-70 (Homo sapiens, UniProt P43403).
T2 sequence (P43403 whole entry): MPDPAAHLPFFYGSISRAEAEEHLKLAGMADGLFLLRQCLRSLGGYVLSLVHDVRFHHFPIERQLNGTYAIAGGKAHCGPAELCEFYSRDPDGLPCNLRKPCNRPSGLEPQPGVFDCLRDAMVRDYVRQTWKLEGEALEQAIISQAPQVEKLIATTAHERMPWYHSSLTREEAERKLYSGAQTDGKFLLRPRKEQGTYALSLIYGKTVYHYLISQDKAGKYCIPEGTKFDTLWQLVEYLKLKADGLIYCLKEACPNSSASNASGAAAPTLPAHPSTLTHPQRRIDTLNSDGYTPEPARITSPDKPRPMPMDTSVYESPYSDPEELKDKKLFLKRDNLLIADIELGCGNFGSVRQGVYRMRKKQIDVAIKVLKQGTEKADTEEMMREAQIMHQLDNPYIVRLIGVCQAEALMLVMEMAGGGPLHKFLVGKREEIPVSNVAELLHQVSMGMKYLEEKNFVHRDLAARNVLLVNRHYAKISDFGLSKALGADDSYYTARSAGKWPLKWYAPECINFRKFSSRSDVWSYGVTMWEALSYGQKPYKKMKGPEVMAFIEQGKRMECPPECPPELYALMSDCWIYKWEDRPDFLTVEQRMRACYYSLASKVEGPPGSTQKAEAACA
The assay is described as follows: Inhibition of Zap 70.

Assay [5] deals with Jurkat. The assay is described as follows: Inhibition of PMA stimulated IL-2 production in Jurkat cells. The format is functional, cell-based. As to conditions: Homo sapiens.
In assay [6] the target is T1, Tyrosine-protein kinase Lck. The source holds these as a separate data set.
Description: Inhibition of p56 Lck tyrosine kinase catalytic domain at 1 mM ATP
In assay [7] the target is Cyclin-dependent kinase 1/cyclin B (Homo sapiens, UniProt P06493). The assay is described as follows: Inhibition of CDC2/CyB. The format is protein-complex assay.
For assay [8], the target named is Proto-oncogene tyrosine-protein kinase Src (Homo sapiens, UniProt P12931).
Proto-oncogene tyrosine-protein kinase Src, sequence (P12931 2-536 limits assumed): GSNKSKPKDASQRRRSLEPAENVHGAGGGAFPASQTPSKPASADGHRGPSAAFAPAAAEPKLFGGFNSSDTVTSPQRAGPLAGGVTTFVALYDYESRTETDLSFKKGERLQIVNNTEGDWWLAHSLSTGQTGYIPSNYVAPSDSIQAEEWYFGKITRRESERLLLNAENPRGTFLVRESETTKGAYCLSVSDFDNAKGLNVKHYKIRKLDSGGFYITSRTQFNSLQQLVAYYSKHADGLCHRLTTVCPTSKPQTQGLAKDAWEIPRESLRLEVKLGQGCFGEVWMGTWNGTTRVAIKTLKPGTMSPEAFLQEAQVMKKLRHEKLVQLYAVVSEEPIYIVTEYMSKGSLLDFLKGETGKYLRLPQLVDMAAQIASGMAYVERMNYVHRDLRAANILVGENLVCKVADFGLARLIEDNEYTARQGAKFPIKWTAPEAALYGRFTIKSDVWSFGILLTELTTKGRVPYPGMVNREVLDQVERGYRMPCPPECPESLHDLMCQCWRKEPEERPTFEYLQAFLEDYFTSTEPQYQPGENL
Description: Inhibition of src at 5 mM ATP
Assay [9] addresses T1, Tyrosine-protein kinase Lck. This is another data set of the same source.
Description: Inhibition of p56 Lck tyrosine kinase catalytic domain at 5 uM ATP
Another assay concerns the target Protein kinase C (PKC). The assay is described as follows: Inhibition of PKC. The format is protein assay.
For assay [10], the target named is T1, Tyrosine-protein kinase Lck. This is another data set of the same source.
Description: Inhibition of p56 Lck tyrosine kinase at 1 mM ATP
Assay [11] has as its target Vascular endothelial growth factor receptor 2 (Homo sapiens, UniProt P35968).
Description: Inhibition of Vascular endothelial growth factor receptor 2 at 5 uM ATP
The target of another assay is Angiopoietin-1 receptor (Homo sapiens, UniProt Q02763).
Angiopoietin-1 receptor, sequence (Q02763 whole entry): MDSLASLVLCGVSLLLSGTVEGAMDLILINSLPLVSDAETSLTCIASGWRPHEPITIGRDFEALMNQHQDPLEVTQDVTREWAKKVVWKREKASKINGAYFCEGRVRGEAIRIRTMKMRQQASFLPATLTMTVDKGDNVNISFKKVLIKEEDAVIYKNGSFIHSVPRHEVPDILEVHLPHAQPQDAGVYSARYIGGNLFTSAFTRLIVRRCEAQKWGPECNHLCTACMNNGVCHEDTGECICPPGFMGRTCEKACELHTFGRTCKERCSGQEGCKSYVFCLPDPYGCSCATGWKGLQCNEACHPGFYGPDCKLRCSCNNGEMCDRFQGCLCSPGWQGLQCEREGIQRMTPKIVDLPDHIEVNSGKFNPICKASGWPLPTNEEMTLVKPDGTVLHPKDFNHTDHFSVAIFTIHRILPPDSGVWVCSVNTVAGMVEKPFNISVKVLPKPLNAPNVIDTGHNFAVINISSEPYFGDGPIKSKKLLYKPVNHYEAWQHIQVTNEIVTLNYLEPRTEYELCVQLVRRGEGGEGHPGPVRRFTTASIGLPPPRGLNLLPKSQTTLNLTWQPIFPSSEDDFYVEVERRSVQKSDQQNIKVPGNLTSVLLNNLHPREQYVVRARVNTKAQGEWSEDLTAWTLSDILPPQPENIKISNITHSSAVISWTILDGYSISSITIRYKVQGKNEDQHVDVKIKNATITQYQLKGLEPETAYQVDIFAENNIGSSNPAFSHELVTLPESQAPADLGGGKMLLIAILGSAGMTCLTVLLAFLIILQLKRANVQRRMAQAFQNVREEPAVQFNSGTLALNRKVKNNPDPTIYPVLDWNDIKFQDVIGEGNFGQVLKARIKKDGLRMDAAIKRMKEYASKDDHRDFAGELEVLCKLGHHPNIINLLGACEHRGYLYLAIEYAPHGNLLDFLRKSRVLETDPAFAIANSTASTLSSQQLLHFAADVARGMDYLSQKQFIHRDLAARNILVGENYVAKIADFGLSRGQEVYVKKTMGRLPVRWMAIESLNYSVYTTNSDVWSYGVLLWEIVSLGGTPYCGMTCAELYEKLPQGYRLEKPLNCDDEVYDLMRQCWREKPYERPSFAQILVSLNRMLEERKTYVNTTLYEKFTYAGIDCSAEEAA

T1 sequence (P06239 whole entry): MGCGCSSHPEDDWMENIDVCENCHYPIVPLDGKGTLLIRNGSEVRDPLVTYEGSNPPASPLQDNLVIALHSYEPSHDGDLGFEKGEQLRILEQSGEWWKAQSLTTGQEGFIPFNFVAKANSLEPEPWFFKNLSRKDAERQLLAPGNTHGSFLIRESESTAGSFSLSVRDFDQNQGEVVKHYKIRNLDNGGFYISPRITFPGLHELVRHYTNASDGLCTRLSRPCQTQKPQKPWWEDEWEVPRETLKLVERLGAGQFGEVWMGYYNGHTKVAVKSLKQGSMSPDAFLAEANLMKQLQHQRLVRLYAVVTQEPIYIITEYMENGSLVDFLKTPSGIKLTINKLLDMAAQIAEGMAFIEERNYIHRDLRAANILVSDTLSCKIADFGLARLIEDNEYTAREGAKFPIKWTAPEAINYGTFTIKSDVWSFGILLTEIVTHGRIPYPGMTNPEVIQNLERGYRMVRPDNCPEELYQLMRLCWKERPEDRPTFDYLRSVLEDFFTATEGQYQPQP
Vascular endothelial growth factor receptor 2, sequence (P35968 whole entry): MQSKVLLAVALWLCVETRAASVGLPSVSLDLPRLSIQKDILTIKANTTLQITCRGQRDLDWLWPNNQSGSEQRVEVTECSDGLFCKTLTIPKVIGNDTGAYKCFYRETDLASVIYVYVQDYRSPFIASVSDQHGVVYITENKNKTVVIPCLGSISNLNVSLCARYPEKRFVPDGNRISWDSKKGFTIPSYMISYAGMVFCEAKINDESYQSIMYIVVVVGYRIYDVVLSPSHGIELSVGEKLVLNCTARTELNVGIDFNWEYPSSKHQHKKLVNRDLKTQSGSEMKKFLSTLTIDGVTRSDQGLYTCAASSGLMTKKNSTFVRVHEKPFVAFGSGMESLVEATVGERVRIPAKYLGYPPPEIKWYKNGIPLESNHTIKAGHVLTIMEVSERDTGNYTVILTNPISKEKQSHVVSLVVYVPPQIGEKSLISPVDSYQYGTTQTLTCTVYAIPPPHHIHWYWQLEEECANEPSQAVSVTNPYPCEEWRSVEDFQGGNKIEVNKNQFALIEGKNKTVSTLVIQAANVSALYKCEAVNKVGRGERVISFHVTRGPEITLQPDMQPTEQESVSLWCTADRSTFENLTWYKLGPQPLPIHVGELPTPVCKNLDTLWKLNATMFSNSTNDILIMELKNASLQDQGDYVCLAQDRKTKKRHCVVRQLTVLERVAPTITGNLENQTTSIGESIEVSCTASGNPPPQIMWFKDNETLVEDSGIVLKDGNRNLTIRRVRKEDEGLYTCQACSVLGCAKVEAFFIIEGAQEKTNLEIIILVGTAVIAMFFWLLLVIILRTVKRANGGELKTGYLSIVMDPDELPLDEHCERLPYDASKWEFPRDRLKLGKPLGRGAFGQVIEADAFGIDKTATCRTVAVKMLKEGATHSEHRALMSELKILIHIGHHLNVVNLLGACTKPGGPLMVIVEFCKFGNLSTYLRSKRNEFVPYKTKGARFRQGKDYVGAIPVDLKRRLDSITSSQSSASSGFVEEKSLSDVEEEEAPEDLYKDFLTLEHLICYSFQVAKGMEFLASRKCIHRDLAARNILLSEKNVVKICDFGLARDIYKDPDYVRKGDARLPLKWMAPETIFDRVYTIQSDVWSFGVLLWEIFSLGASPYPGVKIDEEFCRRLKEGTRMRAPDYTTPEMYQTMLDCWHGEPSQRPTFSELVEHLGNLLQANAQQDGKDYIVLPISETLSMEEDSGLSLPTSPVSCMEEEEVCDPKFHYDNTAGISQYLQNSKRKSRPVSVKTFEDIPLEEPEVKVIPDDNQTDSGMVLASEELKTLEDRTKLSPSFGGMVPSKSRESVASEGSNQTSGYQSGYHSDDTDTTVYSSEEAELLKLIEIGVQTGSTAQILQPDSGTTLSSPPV
Description for Angiopoietin-1 receptor: Inhibition of tie-2 at 5 uM ATP

On to `c1ccc(Oc2ccc(Nc3ncnc4ccccc34)cc2)cc1`, for which the IC50 in assay [1] was < 8 nM.
`CC(C)(C)n1cc(-c2ccc(Cl)cc2)c2c(N)ncnc21` gave an IC50 in assay [1] of 220 nM. This counts as sub-micromolar.
Turning to `Cc1ccc(-c2nn(C(C)(C)C)c3ncnc(N)c23)cc1`, the IC50 is 1200 nM in the assay with Jurkat [2] and 400 nM with Jurkat [3].
On to `Nc1ncnc2c1c(-c1ccc(Oc3ccccc3)cc1)cn2C1CCCC1`, for which the IC50 is > 50000 nM in assay [4]; 40 nM in the assay with Jurkat [2]; 1500 nM in the assay on Jurkat [5]; 1070 nM in [6]; > 50000 nM in assay [7]; 70 nM in [8]. The IC50 in assay [9] was 2 nM; at Protein kinase C (PKC), > 33000 nM; in assay [1], < 1 nM; in assay [10] it was 16 nM; in [11], 1570 nM.
Take `Nc1ncnc2c1c(-c1ccccc1Oc1ccccc1)cn2C1CCCC1`: the IC50 was 390 nM in assay [1] and > 50000 nM in assay [11].
On to `Nc1ncnc2c1c(-c1ccc(Oc3ccccc3)cc1)cn2C1CCC(O)C1` (stereo unspecified), for which the IC50 in [4] is > 50000 nM; against Angiopoietin-1 receptor, 58.3 nM; in the assay with Jurkat [5], 3000 nM; in assay [7] it was > 50000 nM; in assay [8] it was 88 nM; against Protein kinase C (PKC), > 33000 nM. Also, the IC50 is 28 nM in the assay with Jurkat [3] and 85 nM in [11].
As to `Nc1ncnc2c1c(-c1cccc(Oc3ccccc3)c1)cn2C1CCCC1`, the IC50 in assay [8] is > 1000 nM.
